The test has as its system T1, Lathyrus cicera amine oxidase (LCAO).
T1 construct: copper/TPQ enzyme
Put plainly: coupled peroxidase assay (AAP/DCHBS, […] nm), initial rates. The test is classed as biochemical. The note with it: pH 7, 20 mM phosphate, 25 °C, air O2.
The Km is the substrate concentration at which the rate is half of its maximum. For the compound `NCCc1ccc(O)cc1` [1a], the Km is 600 µM.

In the case of `NCCc1ccccc1` [2a], the Km is 1200 µM.

With `COc1ccc(CCN)cc1O` [3a], the Km is 1580 µM.

As to `COc1cc(CCN)ccc1O` [4a], the Km was determined as 1310 µM.

As for `COc1ccc(CCN)cc1OC` [5a], the Km was determined as 1000 µM.

As for `COc1ccc(CCN)cc1` [6a], the Michaelis constant (Km) came out at 5370 µM.

With `COc1cccc(CCN)c1` [7a], the Michaelis-Menten constant (Km) was found to be 470 µM.

Regarding `NCCc1ccc2c(c1)OCO2` [8a], the Km amounted to 3830 µM.

As for `NCCc1ccc(Cl)cc1` [10a], the Michaelis-Menten constant (Km) is 3380 µM.

Regarding `NCCN1CCCCC1` [11a], the Michaelis-Menten constant (Km) stood at 420 µM.

Consider `NCCN1CCOCC1` [12a], for which the Michaelis constant (Km) came to 6460 µM.

Regarding `NCCC1CCCCC1` [13a], the Km turned out to be 1440 µM.

As to `NCCC1=CCCCC1` [14a], the Michaelis-Menten constant (Km) amounted to 1900 µM.

With `NCCCN1CCOCC1` [15a], the Km amounted to 17000 µM.

With `NCCCn1ccnc1` [16a], the Km was 610 µM.

For the compound `NCCCN1CCCC1` [17a], the Michaelis-Menten constant (Km) was determined as 2300 µM.

As for `CN(C)CCN` [18a], the Michaelis-Menten constant (Km) is 230 µM.

Turning to `CN(C)CCCN` [19a], the Michaelis-Menten constant (Km) was 8800 µM.

The record behind these values is publication PMC8533949, “Biocatalytic Production of Aldehydes: Exploring the Potential of Lathyrus cicera Amine Oxidase” (Biomolecules, 2021).
